Assay results as given in patent publication US20140193338A1, “COMPOUNDS FOR USE IN IMAGING, DIAGNOSING AND/OR TREATMENT OF DISEASES OF THE CENTRAL NERVOUS SYSTEM” (PIRAMAL IMAGING SA, priority 2011, published 2014).
Entries after “also recorded” stand apart in the source; their conditions may differ.

Legend:
[1] = tested on: MAO-B; experiment: PET brain time activity curves (SUV) in cynomolgus monkeys; type: in vivo, cynomolgus monkey
Protocol: One monkey weighing 6.3 kg was injected i.v. with 163 MBq [^18F]rasagiline (compound F) under sevofluorane anaesthesia.
Two cynomolgus monkeys weighting 5.25 and 6.2 kg, respectively were investigated. They were injected i.v. under sevofluorane anaesthesia with 168 MBq and 174 MBq [^18F],(^2H2)rasagiline (1), respectively.

[2] = Blood radioactivity / metabolite profile by radio-HPLC after tracer injection; type: in vivo, cynomolgus monkey; conditions: for number of ^18F labelled metabolites detected: plasma, radio-HPLC, over the time of the investigation
From the text: In addition, the blood radioactivity profiles have been monitored over time using radio-HPLC measurements and were decay corrected (d.c.) (FIGS. 4 and 5).

[3] = target: T1, MAO-B (Homo sapiens, UniProt P27338); experiment: Autoradiography with [^18F]rasagiline on human brain sections, blocking with excess inhibitor; type: binding
T1 construct: Autoradiography using [^18F]rasagiline on human brain slices from a healthy subject; from tissue; host or cells: human brain hemisphere cryosections (100 µm)
T1 sequence (P27338 1-520): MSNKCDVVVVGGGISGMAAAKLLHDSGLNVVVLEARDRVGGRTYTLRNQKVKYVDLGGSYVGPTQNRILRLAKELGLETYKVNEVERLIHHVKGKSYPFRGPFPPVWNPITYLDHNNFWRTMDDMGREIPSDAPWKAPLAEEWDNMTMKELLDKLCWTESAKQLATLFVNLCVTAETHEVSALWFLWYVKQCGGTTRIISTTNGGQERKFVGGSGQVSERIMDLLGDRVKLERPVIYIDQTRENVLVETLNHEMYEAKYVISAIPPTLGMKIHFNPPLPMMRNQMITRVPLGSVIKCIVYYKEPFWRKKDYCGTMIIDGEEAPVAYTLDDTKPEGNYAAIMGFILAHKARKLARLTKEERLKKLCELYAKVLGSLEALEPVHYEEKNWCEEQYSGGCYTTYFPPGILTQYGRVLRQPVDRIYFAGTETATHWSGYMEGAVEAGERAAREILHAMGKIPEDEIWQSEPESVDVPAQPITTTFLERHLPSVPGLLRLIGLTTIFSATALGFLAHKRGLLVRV
Protocol: Binding of the [^18F]rasagiline (compound of formula F) was investigated on human brain sections from normal subjects using a standard protocol.
In brief, whole brain hemispheres were cut at a 100 μm thickness in a Cryocut (Leica, Germany), thaw mounted onto gelatine glass slides and kept at −25° C. before use. Thereafter, the slides containing the regions of interest (e.g. hippocampus, thalamus) were removed and brought to room temperature. The sections were incubated with 0.2 MBq/mL [^18F] compound F in 50 mM TRIS/0.1% BSA (pH 7.4) with salts (120 mM NaCl, 5 mM KCl, 1 mM CaCl2, 1 mM MgCl2) for 90 min at room temperature and washed three times for 5 min each in 50 mM TRIS (pH 7.4). The sections were dipped once into ice cold distilled water, dried at room temperature and exposed to PhosphorImager plates (FUJI BAS 5000) overnight.

[4] = pre-treated with 0.5 mg/kg (L)-deprenyl

number of ^18F labelled metabolites detected [2] | specificity of the ligand ([3]; conclusion from blocking experiments) | autoradiography signal in brain regions with known MAO-B activity ([3]; human brain slices, healthy subject, globus pallidus, putamen, caudate, thalamus, hippocampus, 0.2 MBq/mL, 90 min) | initial brain uptake, striatal (caudate and putamen) and thalamic ROI ([1]; i.v., PET) | initial brain uptake, whole brain ([1]; i.v., PET) | increase of whole brain signal over time ([1]; until the end of the observation time) | whole brain level after slight elimination ([1]; within 15 minutes) | blocking of the [^18F]rasagiline (compound F) autoradiography signal ([3]; excess (10 μM) of the inhibitor in the incubation solution) | SMILES | initial uptake in whole brain relative to [^18F]rasagiline (compound F) ([1]; i.v., PET) | decrease in uptake after deprenyl pre-treatment, Cerebellum [1, 4] [%] | decrease in uptake after deprenyl pre-treatment, Striatum [1, 4] [%] | decrease in uptake after deprenyl pre-treatment, Thalamus [1, 4] [%] | decrease in uptake after deprenyl pre-treatment, cortex [1, 4] [%] | brain elimination behaviour after initial uptake ([1]; whole brain TAC) | metabolite corrected blood radioactivity time curve compared to the non-deuterated compound ([2]; decay corrected)
two | – | – | – | – | – | – | – | [2H]C([2H])(C#C)N[C@H]1c2ccccc2C[C@@H]1[18F] [compound 1, (1S,2S)-2-[^18F]fluoro-N-[(1,1-^2H2)prop-2-yn-1-yl]indan-1-amine] | comparable to that of [^18F]rasagiline (compound F) | 46 | 45 | 47 | 40 | eliminated in a manner resembling that of a reversible ligand | slower elimination; also recorded: increased blood radioactivity over time
eight | specifically interacting with MAO-B | high signal intensity | ca. 400 % SUV | ca. 280 % SUV | about 35 % SUV | ca. 225 % SUV | – | C#CCN[C@H]1c2ccccc2C[C@@H]1[18F] [compound F, reference compound] | – | – | – | – | – | – | –
– | – | – | – | – | – | – | completely blocked | C#CCN[C@@H]1CCc2ccccc21 [rasagiline] | – | – | – | – | – | – | –
